Measured values taken from patent US20190284192A1, “NITROGENOUS MACROCYCLIC COMPOUND, PREPARATION METHOD THEREFOR, PHARMACEUTICAL COMPOSITION AND APPLICATION THEREOF” (LUOXIN PHARMACEUTICAL (SHANGHAI) CO., LTD., priority 2016, published 2019).
pIC50: −log10 of the molar value. Structures can show the parent of a compound that is named as a salt.

Columns and labels:
[1] = biological target: T1, BRD4 (BD1) (Homo sapiens, UniProt O60885); assay: BRD4 (BD1) bromodomain binding, HTRF; conditions: 2 h incubation at r.t.
T1 construct: Each member comprises two tandem bromodomains (BD1 and BD2) for recognizing the acetylated lysine residues

[2] = biological target: T2, BRD4 (BD2) (Homo sapiens, UniProt O60885); assay: BRD4 (BD2) bromodomain binding, HTRF; conditions: 2 h incubation at r.t.
T2 construct: Each member comprises two tandem bromodomains (BD1 and BD2) for recognizing the acetylated lysine residues

pIC50 [1] | pIC50 [2] | Compound
6.96 | 6.74 | Cn1cc2c(c1C#N)CCN(c1ccc(F)cc1)c1ccc(CS(C)(=O)=O)cc1-2 [Compound 4004, 6-(4-Fluorophenyl)-2-methyl-9-(methylsulfonylmethyl)-2,4,5,6-tetrahydrobenzo[b]pyrrolo[3,4-d]azepin-3-nitrile]
6.95 | 7.55 | Cn1cc2c(cc1=O)CNC(c1ccc(F)cc1)c1ccc(CS(C)(=O)=O)cc1-2 (stereo not drawn) [Compound 4008, 7-(4-fluorophenyl)-2-methyl-10-(methylsulfonemethyl)-6,7-dihydro-2H-benzo[c]pyrido[3,4-e]azepin-3(5H)-ketone formate]
8.52 | 9.00 | CCNC(=O)C[C@@H]1N=C(c2ccc(F)cc2)c2c(ccc(OC)c2F)-c2cn(C)c(=O)cc21 [Compound 4035, (S)—N-ethyl-2-(8-fluoro-7-(4-flurophenyl)-9-methoxyl-2-methyl-3-oxo-3,5-dihydro-2H-benzo[c]pyrido[3,4-e]azepin-5-yl)acetamide]
8.30 | 8.70 | CCNC(=O)C[C@@H]1N=C(c2ccc(F)cc2)c2cc(OC)c(F)cc2-c2cn(C)c(=O)cc21 [Compound 4036, (S)—N-ethyl-2-(10-fluoro-7-(4-flurophenyl)-9-methoxyl-2-methyl-3-oxo-3,5-dihydro-2H-benzo[c]pyrido[3,4-e]azepin-5-yl)acetamide]
6.79 | 6.69 | CCS(=O)(=O)Cc1ccc2c(c1)C(c1ccc(F)cc1)=NCc1cc(=O)n(C)cc1-2 [Compound 4039, 9-((ethylsulfonyl)methyl)-7-(4-flurophenyl)-2-methyl-2,5-dihydro-3H-benzo[c]pyrido[3,4-e]azepin-3-ketone]
7.92 | 7.92 | CCS(=O)(=O)Cc1ccc2c(c1)-c1cn(C)c(=O)cc1C1(CC1)N=C2c1ccc(F)cc1 [Compound 4041, 10-((ethylsulfonyl)methyl)-7-(4-flurophenyl)-2-methyl spiro[benzo[c]pyrido[3,4-e]azepin-5,1′-cyclopropane]-3(2H)-ketone]
7.77 | 8.05 | CNS(=O)(=O)Nc1ccc2c(c1)-c1cn(C)c(=O)cc1[C@H](C)N=C2c1ccc(F)cc1 [Compound 4050, (S)—N-(7-(4-flurophenyl)-2,5-dimethyl-3-oxo-3,5-dihydro-2H-benzo[c]pyrido[3,4-e]azepin-10-yl)methylamine sulfonamide]
7.36 | 8.40 | CCS(=O)(=O)Cc1ccc2c(c1)-c1cn(C)c(=O)cc1CN=C2c1cc(OC)c(F)cc1Cl [Compound 4096, 7-(2-chloro-4-fluoro-5-methoxylphenyl)-10-((ethylsulfonyl)methyl)-2-methyl-2,5-dihydro-3H-benzo[c]pyrido[3,4-e]azepin-3-ketone]
7.70 | 8.52 | CCS(=O)(=O)Cc1ccc2c(c1)-c1nn(C)c(=O)cc1C(C)N=C2c1ccc(F)cc1Cl (stereo not drawn) [Compound 4097, 7-(2-chloro-4-flurophenyl)-10-((ethylsulfonyl)methyl)-2,5-dimethyl-2,5-dihydro-3H-benzo[c]pyridazino[3,4-e]azepin-3-ketone]
7.66 | 8.52 | Cn1cc2c(cc1=O)CN=C(c1ccc(F)cc1Cl)c1ccc(CS(C)(=O)=O)cc1-2 [Compound 4098, 7-(2-chloro-4-flurophenyl)-2-methyl-10-((dimethylfulfone)methyl)-2,5-dihydro-3H-benzo[c]pyrido[3,4-e]azepin-3-ketone]
8.70 | 9.05 | CNS(=O)(=O)Cc1ccc2c(c1)-c1cn(C)c(=O)cc1N(C)N=C2c1ccc(F)cc1 [Compound 4099, 1-(7-(4-flurophenyl)-2,5-dimethyl-3-oxo-3,5-dihydro-2H-benzo[e]pyrido[4,3-c][1,2]diazepin-10-yl)-N-methylmethane sulfamide]
8.52 | 9.15 | CCS(=O)(=O)Cc1ccc2c(c1)-c1cn(C)c(=O)cc1[C@H](C)N=C2c1ccc(F)cc1Cl [Compound 4101, (S)-7-(2-chloro-4-flurophenyl)-10-((ethylsulfonyl)methyl)-2,5-dimethyl-2,5-dihydro-3H-benzo[c]pyrido[3,4-e]azepin-3-ketone]
